The target in one experiment is T1, Adenosine A1 receptor (Homo sapiens, UniProt P30542).
T1 sequence (P30542 1-326): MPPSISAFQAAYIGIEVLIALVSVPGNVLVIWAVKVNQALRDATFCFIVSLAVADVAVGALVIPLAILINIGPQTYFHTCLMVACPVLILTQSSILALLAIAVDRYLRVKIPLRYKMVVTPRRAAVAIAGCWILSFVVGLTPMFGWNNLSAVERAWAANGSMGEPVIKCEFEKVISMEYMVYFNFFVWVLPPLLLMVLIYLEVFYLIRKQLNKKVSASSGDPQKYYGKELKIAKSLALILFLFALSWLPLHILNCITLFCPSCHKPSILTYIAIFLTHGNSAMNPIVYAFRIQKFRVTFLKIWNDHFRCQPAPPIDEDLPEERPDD
The experiment can be described thus: A1 antagonist function (no method described). It is filed as cell-based.

The test system of the next experiment is C57bl/6 mice. The experiment can be described thus: Haloperidol-induced catalepsy study in C57bl/6 mice. It is filed as in vivo. Conditions: orally dosed at 10 mg/kg; haloperidol 1.5 mg/kg s.c.; test 1 hour after oral dose. Here is the method:
Haloperidol-induced catalepsy study in C57bl/6 mice
Mature male C57bl/6 mice (9-12 week old from ACE) were housed two per cage in a rodent room. Room temperature was maintained at 64-79 degrees and humidity at 30-70% and room lighting at 12 hrs light/12 hrs dark cycle. On the study day, mice were transferred to the study room. The mice were injected subcutaneously with haloperidol (Sigma H1512, 1.0 mg/ml made in 0.3% tartaric acid, then diluted to 0.2 mg/ml with saline) or vehicle at 1.5 mg/kg, 7.5ml/kg. The mice were then placed in their home cages with access to water and food. 30 minutes later, the mice were orally dosed with vehicle (0.3% Tween 80 in saline) or compounds at 10 mg/kg, 10 ml/kg (compounds, 1mg/ml, made in 0.3% Tween 80 in saline, sonicated to obtain a uniform suspension). The mice were then placed in their home cages with access to water and food. 1 hour after oral dose, the catalepsy test was performed. A vertical metal-wire grid (1.0 cm squares) was used for the test. The mice were placed on the grid and given a few seconds to settle down and their immobility time was recorded until the mice moved their back paw(s). The mice were removed gently from the grid and put back on the grid and their immobility time was counted again. The measurement was repeated three times. The average of three measurements was used for data analysis.

Experiment [1] addresses T2, human A2a adenosine receptor (Homo sapiens, UniProt P29274).
T2 construct: purchased PerkinElmer RB-HA2a; host or cells: HEK293 cell plasma membrane
The experiment can be described thus: Ligand binding assay for adenosine A2a receptor ([3H]CGS21680, HEK293 plasma membrane). Conditions: radioligand [3H]CGS21680, HEK293 membranes, room temperature 2 hours; read-out: Ki (nM) A2a binding. How it is done:
Ligand Binding Assay for Adenosine A2a Receptor
Ligand binding assay of adenosine A2a receptor was performed using plasma membrane of HEK293 cells containing human A2a adenosine receptor (PerkinElmer, RB-HA2a) and radioligand [^3H]CGS21680 (PerkinElmer, NET1021). Assay was set up in 96-well polypropylene plate in total volume of 200 µl by sequentially adding 20 µL1:20 diluted membrane, 130 µLassay buffer (50 mM Tris·HCl, pH7.4 10 mM MgCl2, 1 mM EDTA) containing [^3H] […] Nonspecific binding was determined by […] NECA. Reaction was carried out at room temperature for 2 hours before filtering through 96-well GF/C filter plate pre-soaked in 50 mM Tris·HCl, pH7.4 containing 0.3% polyethylenimine. Plates were then washed 5 times with cold 50 mM Tris·HCl, pH7.4, dried and sealed at the bottom. Microscintillation fluid 30 µl was added to each well and the top sealed. Plates were counted on Packard Topcount for [^3H]. Data was analyzed in Microsoft Excel and GraphPad Prism programs.

The target of experiment [2] is T3, human adenosine A2a receptors (Homo sapiens, UniProt P29274).
T3 construct: expressed in transfected cells; host or cells: CHO-K1 cells with cAMP-inducible beta-galactosidase reporter gene
The experiment can be described thus: Adenosine A2a receptor functional assay, antagonist mode (cAMP-inducible beta-galactosidase reporter, 50 nM NECA). Particulars: CHO-K1 cells, read-out: Ki (nM) A2a antagonist function. It is filed as cell-based. Here is the method: Adenosine A2a Receptor Functional Assay
CHO-K1 cells overexpressing human adenosine A2a receptors and containing cAMP-inducible beta-galactosidase reporter gene were seeded at 40-50K/well into 96-well tissue culture plates and cultured for two days. On assay day, cells were washed once with 200 µL assay medium (F-12 nutrient mixture/0.1 % BSA). For agonist assay, adenosine A2a receptor agonist NECA was subsequently added and cell incubated at 37°C, 5% CO2 for 5 hrs before stopping reaction. In the case of antagonist assay, cells were incubated with antagonists for 5 minutes at R.T. followed by addition of 50 nM NECA. Cells were then incubated at 37°C, 5% CO2 for 5 hrs before stopping experiments by washing cells with PBS twice. 50 µL 1X lysis buffer (Promega, 5X stock solution, needs to be diluted to 1X before use) was added to each well and plates frozen at -20°C. For β-galactosidase enzyme colorimetric assay, plates were thawed out at room temperature and 50 µL 2X assay buffer (Promega) added to each well. Color was allowed to develop at 37°C for 1 h or until reasonable signal appeared. Reaction was then stopped with 150 µL 1 M sodium carbonate. […] Data was analyzed in Microsoft Excel and GraphPad Prism programs.

The values that follow come from patent EP1673354B1, “ARYLINDENOPYRIDINES AND ARYLINDENOPYRIMIDINES AND THEIR USE AS ADENOSINE A2A RECEPTOR ANTAGONISTS” (Ortho-McNeil Pharmaceutical, Inc., priority 2003, dated 2005).

T2 sequence (P29274 whole entry): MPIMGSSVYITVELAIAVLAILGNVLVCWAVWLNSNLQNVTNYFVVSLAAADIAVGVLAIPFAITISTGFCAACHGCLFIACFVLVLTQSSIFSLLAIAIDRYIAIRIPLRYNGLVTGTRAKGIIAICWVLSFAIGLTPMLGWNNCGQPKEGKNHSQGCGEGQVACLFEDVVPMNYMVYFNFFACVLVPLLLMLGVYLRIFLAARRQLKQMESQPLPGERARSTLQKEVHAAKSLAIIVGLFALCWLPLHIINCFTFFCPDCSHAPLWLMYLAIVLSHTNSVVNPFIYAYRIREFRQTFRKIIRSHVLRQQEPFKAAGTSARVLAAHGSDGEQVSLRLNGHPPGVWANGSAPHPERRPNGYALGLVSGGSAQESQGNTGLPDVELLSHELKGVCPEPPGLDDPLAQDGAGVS
T3 sequence (P29274 whole entry): as above

`Nc1nc(-c2ccco2)c2c(n1)-c1ccccc1C2=O` [Compound 3, 2-amino-4-furan-2-yl-indeno[1,2-d]pyrimidin-5-one]: the affinity on Adenosine A1 receptor, expressed as Ki, was 0.288 nM. In addition, the “inhibition of haloperidol-induced catalepsy” value with C57bl/6 mice came to 90%.

For the compound `CN(C)CCOC(=O)c1c(N)nc(-c2ccco2)c2c1-c1ccccc1C2=O` [Compound 70, 9H-indeno[2,1-c]pyridine-4-carboxylic acid, 3-amino-1-furan-2-yl-9-oxo-, 2-dimethylamino-ethyl ester], the Ki (commonly a measure of affinity in units of concentration, obtained from inhibition or displacement) in experiment [1] was determined as 9.89 nM; in experiment [2] it was 0.44 nM; on Adenosine A1 receptor, 20.1 nM. For the same compound, the “inhibition of haloperidol-induced catalepsy” value in the experiment with C57bl/6 mice was found to be 87%.

Consider `Nc1nc(-c2ccccc2)c2c(c1C(=O)OCCCN1CCOCC1)-c1ccccc1C2=O` [Compound 84], for which the inhibitory constant (Ki) in experiment [1] stood at 174 nM; in experiment [2], 24.7 nM; at Adenosine A1 receptor, 27.4 nM.

As to `CC(C)Cc1nc(N)c(C#N)c2c1C(=O)c1ccccc1-2` [Compound 86], the Ki in experiment [1] is 244 nM; in experiment [2] it was more than 1000 nM; at Adenosine A1 receptor, 39.3 nM.

For `CN(C)CCCOC(=O)c1c(N)nc(-c2ccccc2)c2c1-c1ccccc1C2=O` [Compound 87], the inhibitory constant (Ki) was 98.9 nM in experiment [1], 39.5 nM in experiment [2] and more than 300 nM on Adenosine A1 receptor.

For the compound `Nc1nc(-c2ccccc2)c2c(c1C(=O)OCCN1CCCC1)-c1ccccc1C2=O` [Compound 88], the inhibition constant (Ki) was 130 nM in experiment [1], 48.9 nM in experiment [2] and more than 300 nM at Adenosine A1 receptor.

Turning to `N#Cc1c(N)nc(-c2ccco2)c2c1-c1ccccc1C2O` (stereo not drawn) [Compound 89], the inhibition constant Ki in experiment [1] turned out to be 5.85 nM; in experiment [2], 1.12 nM; at Adenosine A1 receptor it was 11.2 nM.

As for `CN1CCCC1COC(=O)c1c(N)nc(-c2ccccc2)c2c1-c1ccccc1C2=O` (stereo not drawn) [Compound 90], the Ki in experiment [1] is 202 nM; in experiment [2], 57.7 nM; on Adenosine A1 receptor it was more than 300 nM.

For `Nc1nc(-c2ccccc2)c2c(c1C(=O)OCCN1CCOCC1)-c1ccccc1C2=O` [Compound 91], the inhibitory constant (Ki) in experiment [1] turned out to be 208 nM; in experiment [2], 22.1 nM; at Adenosine A1 receptor, 14.7 nM.

For `CC(COC(=O)c1c(N)nc(-c2ccccc2)c2c1-c1ccccc1C2=O)CN(C)C` (stereo not drawn) [Compound 92], the values for the Ki (in experiment [1]; in experiment [2]; at Adenosine A1 receptor) were 38.8 nM, 13.9 nM and 32.9 nM, respectively.

Consider `CN(C)CCOC(=O)c1c(N)nc(-c2ccsc2)c2c1-c1ccccc1C2=O` [Compound 93], for which the Ki is 64.1 nM in experiment [1], 23.6 nM in experiment [2] and 104 nM on Adenosine A1 receptor.

`C=CCCc1nc(N)c(C#N)c2c1C(=O)c1ccccc1-2` [Compound 94]: the inhibition constant Ki in experiment [1] is 49.5 nM; in experiment [2] it was more than 1000 nM; at Adenosine A1 receptor, 36 nM.

`N#Cc1c(N)nc(C2CCCCC2)c2c1-c1ccccc1C2=O` [Compound 95]: the Ki in experiment [1] is 338 nM; in experiment [2], more than 1000 nM; at Adenosine A1 receptor, 110 nM.

On to `CC(CN(C)C)OC(=O)c1c(N)nc(-c2ccco2)c2c1-c1ccccc1C2=O` (stereo not drawn) [Compound 96], for which the inhibition constant (Ki) was 48.5 nM in experiment [1], 10.1 nM in experiment [2] and 52.5 nM on Adenosine A1 receptor.
